# In ChEMBL document CHEMBL5143692, “Design, synthesis and conformation-activity relationship analysis of LNA/BNA-type 5'-O-aminoribosyluridine as MraY inhibitors” (Bioorg Med Chem, 2022):
# How the values were obtained:
# [1] = tested on: Mycobacteroides abscessus; assay: Antibacterial activity against Mycobacterium abscessus ATCC 19977 assessed as inhibition of bacterial growth incubated for 5 days by microplate reader analysis; format: functional; settings: ATCC 19977, 120 h, time 5 day
# [2] = target: T1, Phospho-N-acetylmuramoyl-pentapeptide-transferase (Staphylococcus aureus, UniProt P0C1R8); assay: Inhibition of Staphylococcus aureus MraY assessed as reduction of dansylated lipid I formation using UDP-MurNAcdansylpentapeptide as substrate incubated for 3 to 4 hrs by fluorescence based analysis
# T1 sequence (P0C1R8 whole entry): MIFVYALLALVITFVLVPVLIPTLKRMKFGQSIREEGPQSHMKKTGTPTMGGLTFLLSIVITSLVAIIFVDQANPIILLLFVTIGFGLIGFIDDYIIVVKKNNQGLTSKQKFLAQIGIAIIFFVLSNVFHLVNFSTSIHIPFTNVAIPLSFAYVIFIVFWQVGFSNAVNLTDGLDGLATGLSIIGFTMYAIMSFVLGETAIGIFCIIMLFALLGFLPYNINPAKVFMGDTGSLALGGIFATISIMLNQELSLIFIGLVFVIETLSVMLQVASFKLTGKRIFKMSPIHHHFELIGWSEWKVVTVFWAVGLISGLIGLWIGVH
Compound,MIC50 [1] [µg/mL],IC50 [2] [µM]
NC[C@H]1O[C@@H](O[C@@H](C#Cc2ccccc2)[C@H]2O[C@@H](n3ccc(=O)[nH]c3=O)[C@H](O)[C@@H]2O)[C@H](O)[C@@H]1O,> 32,2.3
C#C[C@H](O[C@@H]1O[C@H](CN)[C@@H](O)[C@H]1O)[C@@]12CO[C@@H]([C@H](n3ccc(=O)[nH]c3=O)O1)[C@@H]2O,> 32,24
NC[C@H]1O[C@@H](O[C@@H](C#Cc2ccccc2)[C@@]23CO[C@@H]([C@H](n4ccc(=O)[nH]c4=O)O2)[C@@H]3O)[C@H](O)[C@@H]1O,> 32,37

# Results, then the compound that gave them:
MIC50 [1] [µg/mL],IC50 [2] [µM],Compound
32,4.5,CC[C@H](O[C@@H]1O[C@H](CN)[C@@H](O)[C@H]1O)[C@@]12CO[C@@H]([C@H](n3ccc(=O)[nH]c3=O)O1)[C@@H]2O
> 32,46,NC[C@H]1O[C@@H](OC[C@@]23CO[C@@H]([C@H](n4ccc(=O)[nH]c4=O)O2)[C@@H]3O)[C@H](O)[C@@H]1O
> 32,20,C#C[C@H](O[C@@H]1O[C@H](CN)[C@@H](O)[C@H]1O)[C@H]1O[C@@H](n2ccc(=O)[nH]c2=O)[C@H](O)[C@@H]1O
